Reference: US11414424B2, “Cardiac sarcomere inhibitors” (Cytokinetics, Inc., priority 2018, dated 2022)

Experiments:
[1] = test system: bovine cardiac myofibrils; assay: Myofibril assay: PK/LDH-coupled steady-state ATPase activity of skinned bovine cardiac myofibrils; type: biochemical; conditions: Ca2+ activating to 75% of maximal rate
Summary of the method: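 Steady-state ATPase of detergent-skinned bovine left-ventricular myofibrils (1 mg/mL), PK/LDH-coupled NADH read at 340 nm, in PIPES/MgCl2 buffer pH 6.8 with 50 μM ATP, 0.6 mM EGTA and CaCl2 set for 50% or 75% activation. Inhibition of activity measured.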

[2] = test system: adult cardiac ventricular rat myocytes; assay: Adult ventricular myocyte contractility (fractional shortening); type: cell-based; conditions: 5 min perfusion
Description: Adult male Sprague-Dawley rats were anesthetized and the hearts were quickly excised, rinsed and the ascending aorta was cannulated. Continuous retrograde perfusion was initiated on the hearts at a perfusion pressure of 60 cm H2O. Hearts were first perfused with a nominally Ca^2+-free modified Krebs solution of the following composition: 113 mM NaCl, 4.7 mM KCl, 0.6 mM KH2PO4, 0.6 mM Na2HPO4, 1.2 mM MgSO4, 12 mM NaHCO3, 10 mM KHCO3, 30 mM taurine, 5.5 mM glucose and 10 mM Hepes (all Sigma). This medium was not recirculated and was continually aerated with a 95% O2/5% CO2 mixture. After approximately 3 minutes, the heart was perfused with a modified Krebs buffer supplemented with collagenase (Worthington) and 12.5 μM final calcium concentration. The heart was removed from the cannulae after the heart appeared blanched and soft in appearance. The atria and vessels were removed and the ventricles were gently dissected into smaller pieces with forceps. The tissue was homogenized by repeated pipette trituration and the collagenase reaction was stopped by 10% bovine calf serum (BCS), sedimentation and resuspension in perfusion buffer containing 5% BCS and 12.5 uM CaCl2. Myocytes were made calcium tolerant by stepwise addition of a CaCl2 solution to a final concentration of 1.2 mM. Cells were then washed and resuspended in Tyrode's buffer (137 mM NaCl, 3.7 mM KCl, 0.5 mM MgCl, 11 mM glucose, 4 mM Hepes, and 1.2 mM CaCl2, pH 7.4). Cells were kept for 60 min at 37° C. prior to initiating experiments and used within 5 hrs of isolation. […] Additionally, only cells whose basal contractility was between 3 and 8% were used in subsequent experiments with compounds.
Aliquots of myocytes in Tyrode's buffer were placed in perfusion chambers (series 20 RC-27NE; Warner Instruments) complete with heating platforms. Myocytes were allowed to attach, the chambers were heated to 37° C., and the cells were perfused with 37° C. Tyrode's buffer. Myocytes were field stimulated at 1 Hz in with platinum electrodes (20% above threshold). Only cells that had clear striations and were quiescent prior to pacing were used for contractility experiments. To determine basal contractility, myocytes were imaged through a 40× objective. […] Once cell contraction was stable over time, test compounds (0.01-15 μM) were perfused into the chambers on the myocytes for 5 minutes. Contractility of the myocytes and contraction and relaxation velocities were then recorded using edge detection.
Five or more individual myocytes were tested per compound from two or more different myocyte preparations. For each cell, twenty or more contractility transients at basal (defined as 1 min prior to compound infusion) and after compound addition (defined as 5 min after starting compound perfusion), were averaged and compared. These average transients were analyzed using the IonWizard software (IonOptix) to determine changes in diastolic length and fractional shortening. Fractional shortening was calculated as: ((resting length−length at peak contraction) divided by the resting length). The percent change in fractional shortening from baseline was calculated as: ((post-dose fractional shortening/basal fractional shortening)*100). The percent reduction in fractional shortening from baseline was calculated as: (100−percent change in fractional shortening from baseline). Maximum contraction and relaxation velocities (um/sec) was also determined. Results from individual cells were averaged and the SEM was calculated.

male Sprague Dawley rats [3] = assay: Echocardiography assessment of acute pharmacodynamic effect on rat cardiac contractility, oral dosing; type: in vivo
Description: (§1) Assessment of in vivo cardiac function by echocardiography was performed in male Sprague Dawley rats under isoflurane (1-3%) anesthesia. 2-D M-mode images of the left ventricle were acquired in the parasternal long-axis view before, during, and after administration of compounds by continuous IV infusion or oral gavage. In vivo fractional shortening was determined by M-mode image analysis with the following calculation: ((End diastolic diameter−end systolic diameter)/end diastolic diameter×100). For continuous IV infusion experiments, three pre-dose baseline M-mode images were taken at 1 minute intervals prior to infusion of compound. Compounds were formulated in 50% Propylene Glycol (PG): 16% Captisol: 10% dimethylacetamide (DMA) and delivered via a jugular vein catheter at the rate of 1 mL/kg/h. During infusion, M-mode images were taken at 5 minute intervals. The infusion was stopped when fractional shortening reached up to a 60% reduction from baseline. Blood samples were taken to determine the plasma concentration of the compounds. Data were reported as an estimated IC50 value, which is the concentration at which fractional shortening is 50% of the pre-dose baseline contractility.
For oral dosing studies, three pre-dose baseline M-Mode images were taken at 1 minute intervals prior to compound administration. Compounds were formulated in a 0.5% hydroxypropyl methylcellulose 2910 (HPMC 2910): 0.1% Tween 80 suspension and delivered as a single dose (5 mL/kg) by oral gavage. At one and four hours post-dose, rats were lightly anesthetized for M-mode echocardiography measurement. The compound effect on cardiac fractional shortening are presented as a percent reduction of baseline fractional shortening (=100%) in Table D.
Concurrent with echocardiography measurements, blood samples are taken to determine the corresponding compound plasma concentration, which may be represented as IC50 and IC10 values, which is the concentration at which fractional shortening is 50% and 10% of the pre-dose baseline contractility, respectively.

male Sprague Dawley rats [4] = assay: Echocardiography assessment of acute pharmacodynamic effect on rat cardiac contractility, continuous IV infusion; type: in vivo; conditions: estimated plasma concentration at which fractional shortening is 50% of the pre-dose baseline contractility, read-out: IC50 (mean ± SD)
Description: as §1

## CC(C)N1CC(=O)N(Cc2ccc(Cl)cc2)C2(CCN(c3ccccn3)C2)C1=O (single isomer, unassigned) [Compound 373A, 6-[(4-chlorophenyl)methyl]-9-(propan-2-yl)-2-(pyridin-2-yl)-2,6,9-triazaspiro[4.5]decane-7,10-dione]
[1]
  CDMF75 IC15: 400 nM
[2]; 10 μM
  % FS (% reduction from baseline) ± SEM: 76.6 ± 8.8%

## N#Cc1ccc(N2CC(=O)N(Cc3ccc(C(F)(F)F)cc3)C3(CN(C=O)C3)C2=O)c(F)c1 [Compound 179, 3-fluoro-4-(2-formyl-6,9-dioxo-5-(4-(trifluoro-methyl)benzyl)-2,5,8-triazaspiro[3.5]nonan-8-yl)benzonitrile]
[1]
  CDMF75 IC15: 300 nM
Male Sprague Dawley rats [3]; 3 mg/kg oral
  FS (% reduction from baseline) at 1 h (Mean ± SEM): 33.8 ± 2.6%
  FS (% reduction from baseline) at 4 h (Mean ± SEM): 4.5 ± 4.2%
Male Sprague Dawley rats [3]; 6 mg/kg oral
  FS (% reduction from baseline) at 1 h (Mean ± SEM): 51.9 ± 4.0%
  FS (% reduction from baseline) at 4 h (Mean ± SEM): 15.0 ± 5.4%

## CNC(=O)N1CC2(C1)C(=O)N(c1ccc(Cl)cc1)CC(=O)N2Cc1ccc(C(F)(F)F)cc1 [Compound 150, 8-(4-chlorophenyl)-N-methyl-6,9-dioxo-5-(4-(trifluoromethyl)benzyl)-2,5,8-triazaspiro[3.5]-nonane-2-carboxamide]
[1]
  CDMF75 IC15: 1100 nM
Male Sprague Dawley rats [4]
  IC50: 5440 ± 120 nM

## O=C1C(C2COC2)N(Cc2ccc(C(F)(F)F)cc2)C(=O)CN1c1ncc(Cl)cc1F (single isomer, unassigned) [Compound 861A, 1-(5-chloro-3-fluoropyridin-2-yl)-3-(oxetan-3-yl)-4-(4-(trifluoromethyl)benzyl)piperazine-2,5-dione]
[1]
  CDMF75 IC15: 1000 nM
[2]; 5 μM
  % FS (% reduction from baseline) ± SEM: 88.0 ± 3.31%
Male Sprague Dawley rats [3]; 10 mg/kg oral
  FS (% reduction from baseline) at 1 h (Mean ± SEM): 13.4 ± 1.6%
  FS (% reduction from baseline) at 4 h (Mean ± SEM): 2.0 ± 3.1%
Male Sprague Dawley rats [3]; 100 mg/kg oral
  FS (% reduction from baseline) at 1 h (Mean ± SEM): 50.0 ± 4.0%
  FS (% reduction from baseline) at 4 h (Mean ± SEM): 48.8 ± 5.0%

## N#Cc1ccc(N2CC(=O)N(Cc3ccc(C(F)(F)F)cc3)C3(CC3)C2=O)c(F)c1 [Compound 278, 4-(5,8-dioxo-4-(4-(trifluoromethyl)benzyl)-4,7-diazaspiro[2.5]octan-7-yl)-3-fluorobenzonitrile]
[1]
  CDMF75 IC15: 500 nM
Male Sprague Dawley rats [3]; 3 mg/kg oral
  FS (% reduction from baseline) at 1 h (Mean ± SEM): 15.8 ± 2.0%
  FS (% reduction from baseline) at 4 h (Mean ± SEM): 10.6 ± 5.6%
Male Sprague Dawley rats [3]; 6 mg/kg oral
  FS (% reduction from baseline) at 1 h (Mean ± SEM): 34.4 ± 3.3%
  FS (% reduction from baseline) at 4 h (Mean ± SEM): 12.2 ± 4.2%

## CC(=O)N1CC[C@]2(C1)C(=O)N(c1ccc(C#N)cc1F)CC(=O)N2Cc1ccc(Cl)cc1 [Compound 206, (S)-4-(2-acetyl-6-(4-chlorobenzyl)-7,10-dioxo-2,6,9-triazaspiro[4.5]decan-9-yl)-3-fluorobenzonitrile]
[1]
  CDMF75 IC15: 500 nM
[2]; 10 μM
  % FS (% reduction from baseline) ± SEM: 95.1 ± 1.6%

## CC(C)N1CC(=O)N(Cc2ccc(Cl)cc2)C(c2ccc(Cl)cc2)C1=O (single isomer, unassigned) [Compound 288A, 3-(4-chlorophenyl)-4-[(4-chlorophenyl)methyl]-1-(propan-2-yl)piperazine-2,5-dione]
[1]
  CDMF75 IC15: 800 nM
[2]; 5 μM
  % FS (% reduction from baseline) ± SEM: 64.4 ± 9.7%

## CC(=O)N1CC2(C1)C(=O)N(c1ccc(C#N)cc1F)CC(=O)N2Cc1ccc(C(F)(F)F)cc1 [Compound 202, 4-(2-acetyl-6,9-dioxo-5-[[4-(trifluoromethyl)phenyl]methyl]-2,5,8-triazaspiro[3.5]nonan-8-yl)-3-fluorobenzonitrile]
[1]
  CDMF75 IC15: 800 nM
[2]; 5 μM
  % FS (% reduction from baseline) ± SEM: 68.4 ± 9.5%
Male Sprague Dawley rats [4]
  IC50: 3240 ± 70 nM
Male Sprague Dawley rats [3]; 3 mg/kg oral
  FS (% reduction from baseline) at 1 h (Mean ± SEM): 21.88 ± 2.66%
  FS (% reduction from baseline) at 4 h (Mean ± SEM): 11.25 ± 5.54%
Male Sprague Dawley rats [3]; 15 mg/kg oral
  FS (% reduction from baseline) at 1 h (Mean ± SEM): 51.08 ± 1.93%
  FS (% reduction from baseline) at 4 h (Mean ± SEM): 20.18 ± 3.59%

## CC(=O)N1CC2(C1)C(=O)N(c1ccc(C#N)cc1F)CC(=O)N2[C@@H](C)c1ccc(C(F)(F)F)cc1 [Compound 339, (S)-4-(2-acetyl-6,9-dioxo-5-(1-(4-(trifluoromethyl)phenyl)ethyl)-2,5,8-triazaspiro[3.5]nonan-8-yl)-3-fluorobenzonitrile]
[1]
  CDMF75 IC15: 500 nM
Male Sprague Dawley rats [3]; 2.5 mg/kg oral
  FS (% reduction from baseline) at 1 h (Mean ± SEM): 21.8 ± 2.8%
  FS (% reduction from baseline) at 4 h (Mean ± SEM): 5.8 ± 4.4%
Male Sprague Dawley rats [3]; 5 mg/kg oral
  FS (% reduction from baseline) at 1 h (Mean ± SEM): 66.2 ± 2.9%
  FS (% reduction from baseline) at 4 h (Mean ± SEM): 19.9 ± 2.0%

## N#Cc1cnc(N2CC(=O)N(Cc3ccc(C(F)(F)F)cc3)C(C3COC3)C2=O)c(F)c1 (centres unmarked) [Compound 736, 5-fluoro-6-(3-(oxetan-3-yl)-2,5-dioxo-4-(4-(trifluoromethyl)benzyl)-piperazin-1-yl)nicotinonitrile]
[1]
  CDMF75 IC15: 2000 nM

## CC(C)N1CC(=O)N(Cc2ccc(Cl)cc2)C2(CCN(c3ccc(F)cn3)C2)C1=O (centres unmarked) [Compound 92, 6-(4-chlorobenzyl)-2-(5-fluoropyridin-2-yl)-9-isopropyl-2,6,9-triazaspiro[4.5]decane-7,10-dione]
[1]
  CDMF75 IC15: 1000 nM
